Laboratory results as given in patent US20060246106A1, “Infection resistant medical implants” (priority 2005, published 2006).
In brackets after ≈: the same amount, converted by molar mass. Like-named read-outs stand apart in the source and are kept apart here.

Columns and labels:
Escherichia coli = assay: MIC/MBC, antibiotic dilutions in Mueller-Hinton Broth; type: cell-based; details: E. coli, antibiotic alone
Experimental: The term “MIC” refers to the lowest concentration of antibiotic that inhibits in vitro bacterial growth. The term “MBC” refers to the lowest concentration of antibiotic that totally kills 99.9% of the inoculum. The principle of the test is to add dilutions of an antibiotic to Mueller-Hinton Broth and a standard concentration of the inoculum. Tubes are incubated overnight and read visually for turbidity. The lowest concentration showing no visible growth is the MIC. To establish the MBC broth cultures showing no visible growth are sub-cultured onto appropriate agar and incubated to determine if the organism has been killed.

in vivo = details: dog
Experimental: (§1) Serum samples were collected from the dogs at the same time as the samples for liver and kidney function tests.
(§2) The analytical method for graft samples and serum samples was identical. The method used a HPLC system with a Hypersil 5 ODS column with UV detection at a wavelength of 254 nm. The mobile phase used was a 70:30 0.2M phosphate buffer pH 6.0: acetonitrile. The limit of detection for this method is 0.1 mg/Kg graft or 0.1 mg/litre serum.
(§3) These samples were mixed 50:50 with methanol and left to stand for 1 minute. After this time the solution was centrifuged for 5 minutes at maximum speed in a Microcentaur centrifuge. The supernatant was then used for analysis.
(§4) The analytical method for serum samples and graft samples was identical. The technique used to measure the tobramycin was Polarisation FluoroImmuno Assay (PFIA) using an Abbott FLX instrument using the reverse dilution protocol with a sample volume of 5 μl. The limit of detection for this method is 0.4 mg/Kg graft or 0.4 mg/litre serum.
(§5) The serum samples were analysed directly using the Abbot FLX instrument.

[1] = dog, in vivo
Experimental: as §1, §2, §3, §4, §5

[2] = elution rate: rifampicin/tobramycin content remaining on the graft; type: in vivo; details: graft harvested from dog, one line per dog; for concentration at 7 days / concentration at 14 days / concentration at 21 days: dog, explanted graft, other: graft implanted end to end in the infrarenal aorta
Experimental: Two grafts were harvested after week 1, two grafts after week 2 and the final two grafts were harvested after week 3. Immediately after harvesting, the grafts were prepared for antibiotic analysis. […] The graft samples required the rifampicin to be extracted from the graft material. The extraction procedure was as follows. A volume of methanol equivalent to 3 times the dry weight of the graft was added. […] The supernatant was then injected directly into the HPLC. […] The graft samples required the tobramycin to be extracted from the graft material. The extraction procedure was as follows. […] The supernatant was then injected directly into the PFIA. The extraction was repeated on the same graft sample to ensure that all the tobramycin had been extracted.

For `CO[C@H]1/C=C/O[C@@]2(C)Oc3c(C)c(O)c4c(O)c(c(/C=N/N5CCN(C)CC5)c(O)c4c3C2=O)NC(=O)/C(C)=C\C=C\[C@H](C)[C@H](O)[C@@H](C)[C@@H](O)[C@@H](C)[C@H](OC(C)=O)[C@@H]1C` [Rifampicin, rifampicin], the MBC (Escherichia coli) was 32.5 µg/mL (≈ 39.5 µM), the MIC (Escherichia coli) was 16.2 µg/mL (≈ 19.7 µM) and the concentration at 1 day (in vivo) was 230 ng/mL. For the same compound, the concentration at 3 day (in vivo) was under 100 ng/mL, the concentration at 7 day (in vivo) was under 100 ng/mL and the concentration at 14 day (in vivo) was under 100 ng/mL. The concentration at 21 day (in vivo) was under 100 ng/mL, the “quantity of rifampicin equated to an average human” value ([1]; 1 day) was 1.15 mg and the concentration at 7 days ([2]; Implant Duration 7 Days, read-out: Rifampicin Content, 1st Extraction) was 890 ng/g. It also gave a concentration at 7 days ([2]; Implant Duration 7 Days, read-out: Rifampicin Content, 2nd Extraction) of under 100 ng/g, a concentration at 7 days ([2]; Implant Duration 7 Days, read-out: Rifampicin Content, Total) of 890 ng/g and a concentration at 14 days ([2]; Implant Duration 14 Days, read-out: Rifampicin Content, 1st Extraction) of 730 ng/g. For the same compound, the concentration at 14 days ([2]; Implant Duration 14 Days, read-out: Rifampicin Content, 2nd Extraction) was under 100 ng/g, the concentration at 14 days ([2]; Implant Duration 14 Days, read-out: Rifampicin Content, Total) was 730 ng/g and the concentration at 21 days ([2]; Implant Duration 21 Days, read-out: Rifampicin Content, 1st Extraction) was 340 ng/g. For the same compound, the concentration at 21 days ([2]; Implant Duration 21 Days, read-out: Rifampicin Content, 2nd Extraction) was under 100 ng/g, the concentration at 21 days ([2]; Implant Duration 21 Days, read-out: Rifampicin Content, Total) was 340 ng/g and the “Rifampicin Content, 1st Extraction” value ([2]; Implant Duration 7 Days) was 0.94 mg/Kg graft. The “Rifampicin Content, 2nd Extraction” value ([2]; Implant Duration 7 Days) was under 0.1 mg/Kg graft, the “Rifampicin Content, Total” value ([2]; Implant Duration 7 Days) was 0.94 mg/Kg graft and the “Rifampicin Content, 1st Extraction” value ([2]; Implant Duration 14 Days) was 1.24 mg/Kg graft. For the same compound, the “Rifampicin Content, 2nd Extraction” value ([2]; Implant Duration 14 Days) was under 0.1 mg/Kg graft, the “Rifampicin Content, Total” value ([2]; Implant Duration 14 Days) was 1.24 mg/Kg graft and the “Rifampicin Content, 1st Extraction” value ([2]; Implant Duration 21 Days) was 0.52 mg/Kg graft. The “Rifampicin Content, 2nd Extraction” value ([2]; Implant Duration 21 Days) was under 0.1 mg/Kg graft and the “Rifampicin Content, Total” value ([2]; Implant Duration 21 Days) was 0.52 mg/Kg graft.
`NC[C@H]1O[C@H](O[C@H]2[C@H](O)[C@@H](O[C@H]3O[C@H](CO)[C@@H](O)[C@H](N)[C@H]3O)[C@H](N)C[C@@H]2N)[C@H](N)C[C@@H]1O` [Tobramycin, tobramycin] gave an MBC (Escherichia coli) of 6.25 µg/mL (≈ 13.4 µM), an MIC (Escherichia coli) of 3.12 µg/mL (≈ 6.67 µM) and a concentration at 1 day (in vivo) of under 400 ng/mL. The concentration at 3 day (in vivo) was under 400 ng/mL, the concentration at 7 day (in vivo) was under 400 ng/mL and the concentration at 14 day (in vivo) was under 400 ng/mL. For the same compound, the concentration at 21 day (in vivo) was under 400 ng/mL, the “tobramycin present in the serum of the test dogs” value [1] was “no detectable amount” and the “Tobramycin Content (serum)” value ([1]; 1 day) was under 0.4 mg/litre serum. For the same compound, the “Tobramycin Content (serum)” value ([1]; 3 day) was under 0.4 mg/litre serum, the “Tobramycin Content (serum)” value ([1]; 7 day) was under 0.4 mg/litre serum and the “Tobramycin Content (serum)” value ([1]; 14 day) was under 0.4 mg/litre serum. The “Tobramycin Content (serum)” value ([1]; 21 day) was under 0.4 mg/litre serum, the concentration at 7 days ([2]; Implant Duration 7 Days, read-out: Tobramycin Content, 1st Extraction) was 4800 ng/g and the concentration at 7 days ([2]; Implant Duration 7 Days, read-out: Tobramycin Content, 2nd Extraction) was under 400 ng/g. The concentration at 7 days ([2]; Implant Duration 7 Days, read-out: Tobramycin Content, Total) was 4800 ng/g, the concentration at 14 days ([2]; Implant Duration 14 Days, read-out: Tobramycin Content, 1st Extraction) was 510 ng/g and the concentration at 14 days ([2]; Implant Duration 14 Days, read-out: Tobramycin Content, 2nd Extraction) was under 400 ng/g. The concentration at 14 days ([2]; Implant Duration 14 Days, read-out: Tobramycin Content, Total) was 510 ng/g, the concentration at 21 days ([2]; Implant Duration 21 Days, read-out: Tobramycin Content, 1st Extraction) was under 400 ng/g and the concentration at 21 days ([2]; Implant Duration 21 Days, read-out: Tobramycin Content, 2nd Extraction) was under 400 ng/g. For the same compound, the concentration at 21 days ([2]; Implant Duration 21 Days, read-out: Tobramycin Content, Total) was under 400 ng/g, the “Tobramycin Content, 1st Extraction” value ([2]; Implant Duration 7 Days) was 3.96 mg/Kg graft and the “Tobramycin Content, 2nd Extraction” value ([2]; Implant Duration 7 Days) was under 0.4 mg/Kg graft. The “Tobramycin Content, Total” value ([2]; Implant Duration 7 Days) was 3.96 mg/Kg graft, the “Tobramycin Content, 1st Extraction” value ([2]; Implant Duration 14 Days) was under 0.4 mg/Kg graft and the “Tobramycin Content, 2nd Extraction” value ([2]; Implant Duration 14 Days) was under 0.4 mg/Kg graft. For the same compound, the “Tobramycin Content, Total” value ([2]; Implant Duration 14 Days) was under 0.4 mg/Kg graft, the “Tobramycin Content, 1st Extraction” value ([2]; Implant Duration 21 Days) was under 0.4 mg/Kg graft and the “Tobramycin Content, 2nd Extraction” value ([2]; Implant Duration 21 Days) was under 0.4 mg/Kg graft. For the same compound, the “Tobramycin Content, Total” value ([2]; Implant Duration 21 Days) was under 0.4 mg/Kg graft.
